Results reported in patent US8722343B2, “Methods and compositions for the diagnosis and treatment of diabetes” (priority 2008, dated 2014).

Experiments:
βTC3 cells = assay: TUNEL apoptosis assay in βTC3 cells; assay type: cell-based; conditions: 0.1 mM DHK for five days
Method: 1B: Glutamate overstimulation causes increased β-cell apoptosis. 24 hours after plating, βTC3 cells were incubated for five days with 0.5 mM glutamate, and cell apoptosis was assessed by TUNEL assay. The cell nuclei were labelled with PrI. Histograms on the right represent TUNEL positive cells per field, and are the mean±SE of two independent experiments performed in duplicate.
6C TUNEL assay: 24 hours after plating, βTC3 cells were incubated for five days with 0.1 mM DHK, and cell apoptosis was assessed by TUNEL assay. Cell nuclei were labelled with PrI. Data are presented as TUNEL positive cells per field (histograms on the right), and are the mean±SE of two independent experiments performed in duplicate. * P<0.05
6D ShRNA interference. βTC3 cells were transfected with two different shRNA directed against GLT1 (Sh1, Sh3) or a control shRNA (ShC), and three days after transfection, cells were assayed for 3[H]-D-aspartate uptake (b) or lysed and the presence of GLT assayed by western blotting (a) or fixed and processed for TUNEL (c).
Apoptosis of β-TC3 cells was estimated using the terminal deoxynucleotidyltransferase-mediated dUTP-biotin nick end-labelling assay (TUNEL). […] Tunel-positive cells were counted by two independent observers using a 40× objective from at least 40 randomly selected fields per coverslip. […]

αTC1 cells = assay: Na-dependent [3H]-D-aspartate uptake in αTC1 cells; assay type: cell-based, mouse; conditions: DHK in uptake solution
Method: 2D: 3H-D-Aspartate uptake. Four days after plating the Na-dependent (NaCl) and Na-independent (ChCl) [3H]-D-Aspartate uptake was measured in αTC1 and βTC3 cells. Data are expressed as cpm/well/10 min and represent the mean±SE of at least three independent experiments performed in triplicate. * (NaCl vs ChCl) P<0.001; ° (DHK versus control) P<0.001.
150.000 cells/well were plated in a 24-wells plate, and grown until confluence. After two washes in sodium-free solution (150 mM ChCl, 2 mM KCl, 1 mM CaCl2, 1 mM MgCl2, 10 mM Hepes pH 7.5), cells were incubated for 10 minutes in 200 μl of Na^+-dependent (150 mM NaCl 2 mM KCl, 1 mM CaCl2, 1 mM MgCl2, 10 mM Hepes pH 7.5) or Na^+-independent (sodium-free solution) uptake solution containing 5 μCi/ml of [^3H]D-Aspartic acid (specific activity 37 Ci/mmol; Amersham Biosciences). The amino acid uptake was stopped by washing the cells twice in ice-cold sodium-free solution. Cells were dissolved in 150 μl of SDS 1% for liquid scintillation counting. For transport inhibition, DHK was added to the uptake solution at the indicated concentrations.

human isolated islets = assay type: cell-based; conditions: 16.7 mM glucose; DHK (0.3 mM) or L-glutamate (0.5 mM) alone
Method: FIG. 5: GLT1 CONTROLS HORMONE SECRETION IN HUMAN ISOLATED ISLETS. 48 hours after isolation, 20 human islets per tube were exposed to 3.3 or 16.7 mM glucose in the absence and the presence of either L-glutamate (0.5 mM), DHK (0.3 mM) or both L-glutamate and DHK, and insulin secretion measured. Levels of secreted insulin from islets were normalized to total insulin content. Data are expressed as % of insulin content and represent the mean±SD of two independent experiments performer in duplicate.
Insulin content and secretion were assessed on 20 islets, using a Micro-particle Enzyme Immunoassay (MEIA insulin, IMX System, Abbott Laboratories, Abbott Park, Ill., USA). Insulin secretion in response to increasing glucose concentrations, glutamate or DHK treatment was assessed by static incubation as previously described (Federici et al, 2000). Briefly, batches of 20 islets were pre-incubated in 1 ml of Krebs-Ringer buffer (KRB) supplemented with 3, 3 or 16.7 mM glucose for 30 min. Then the supernatants were replaced with Kreb's buffer containing 3, 3 or 16.7 mM glucose plus glutamate or the specific GLT1 inhibitor DHK (Sigma, St Louis, Mo., USA), as indicated. After a 30-min incubation at 37° C., the medium was removed and frozen for immunoassays. At the end of incubation, islets were lysed in lyses buffer and the total insulin content determined by immunoassay. […]

CC(C)[C@H]1CN[C@H](C(=O)O)[C@H]1CC(=O)O [DHK, Dihydrokainic Acid]
cause of cytotoxicity by TUNEL assay (βTC3 cells): due to apoptosis | Na-dependent D-aspartate uptake (αTC1 cells): not inhibited | effect on insulin secretion (human isolated islets): No effect
